For assay [1], the system named is H9c2 rat heart cardiomyocytes. Description: Cell morphology of cardiomyocytes after H2O2 damage. Format: cell-based. To be noted: 5 μM pretreatment overnight; 100 and 200 μM H2O2 for 4 h. The protocol:
H9c2 rat heart cardiomyocytes were treated with either vehicle control (DMSO, 0.1% v/v), 5 μM delta-tocotrienol or 5 μM TRFRB overnight. Cells were then exposed to 100 or 200 μM H2O2 for 4 h. Morphological changes were recorded under an inverted microscope. Pictures were taken at 10× magnification. Scale bar represents 400 μm.
We then investigated whether TRFRB can protect the various cells types from different tissue origins against H2O2 or IR induced oxidative damage.

Assay [2] deals with H9c2 rat heart cardiomyocytes. Description: Mitochondrial bioenergetics (oxygen consumption rate, XF96 analyzer) in H9c2 cells with or without H2O2. Type of assay: cell-based. The protocol: Oxygen consumption rate (OCR) was measured at 37° C. using an XF96 extracellular analyzer (Seahorse Bioscience) as previously described Pathak et al., Antioxid Redox Signal 2014, 20, 1436-1446. H9c2 rat heart cardiomyocytes cells were plated in 96 well Seahorse plates. The next day they were treated with either vehicle (DMSO, 0.1% v/v) or 5 μM of DT3 or 5 μM of TRFRB overnight. The cells were then treated with 50 or 100 μM H2O2 for 4 h at 37° C. The media in the wells were changed to unbuffered DMEM supplemented with 4 mM […] and incubated in a non-CO2 incubator for 1 h at 37° C. Three baseline measurements were acquired before injection of mitochondrial inhibitors or uncouplers. Readings were taken after sequential addition of oligomycin (10 μM), carbonylcyanide 4-(trifluoromethoxy)phenylhydrazone (FCCP, 10 μM) and rotenone/antimycin A (10 μM). Oxygen consumption rates were calculated by the Seahorse XF-96 software and represent an average of 3 measurements on 8 different wells. The rate of measured oxygen consumption was reported as pmol O2 consumed per minute per 10,000 cells.
Therefore, the next experiment assessed the effects of TRFRB and pure DT3 on cellular bioenergetics and mitochondrial respiration in the absence of any cellular stress. Intracellular mitochondrial function was examined by sequentially adding inhibitors of oxidative phosphorylation. Initially we took 3 measurements to determine the “basal respiration” of the cells. By injecting an inhibitor of mitochondrial ATP synthase (oligomycin), a decrease in oxygen consumption rate (OCR) was obtained and this decrease in OCR is termed as “ATP linked respiration”. In order to determine the maximal respiration potential of the cells, FCCP, an uncoupler, was used. Immediately following FCCP injection, oxygen consumption increased and cells reached to their maximum respiration. Mitochondrial “reserve respiratory capacity” was calculated by subtracting […]. Overnight (16 h) treatment of both DT3 and TRFRB increased basal oxygen consumption rate (OCR) as well as maximum OCR in H9c2 rat heart cardiomyocytes (FIG. 4A). […] 100 μM H2O2 treatment for 4 h completely halted the cellular respiration (FIGS. 4B and C).

In assay [3] the test system is HaCaT cells. The experiment in a line: Mitochondrial bioenergetics (mitochondrial uncoupling) in irradiated keratinocytes. Format: cell-based, human. Particulars: 5 μM pretreatment 16 h prior to 8 Gy IR; 48 h following IR; normalized to sham irradiated control. How it is done: In order to determine the radioprotective effects of TRFRB, human immortalized keratinocytes (HaCaT cells) were plated in 96 well Seahorse plates. The next day they were treated with either vehicle (DMSO, 0.1% v/v) or 5 μM of DT3 or 5 μM of TRFRB overnight. The Seahorse plates were either sham irradiated or irradiated with 8 Gy of γ-irradiation. Both plates were sequentially run in the XF96 extracellular analyzer as described above.
Secondly we utilized an immortalized human skin keratinocyte line (HaCaT cells) to evaluate the radioprotective effects of TRFRB. HaCaT cells were pretreated with DMSO vehicle or 5 μM of DT3 or TRFRB for 16 h prior to 8 Gy IR. Then the cellular bioenergetics and mitochondrial respiration in these cells were assayed at 48 h following IR exposure as described with H9c2 cells. The percent mitochondrial uncoupling is defined and calculated by determining the increase in the ratio of basal respiration to maximum respiration (OCR following FCCP treatment) and the data was normalized to the sham irradiated control group.

Assay [4] concerns HaCaT cells. The experiment in a line: In vitro scratch assay (keratinocyte migration) after 8 Gy IR. Format: cell-based, human. Particulars: 5 μM given 4 h after IR exposure. How it is done:
Human immortalized keratinocytes (HaCaT cells) were plated in 12 well culture plates and irradiated with 8 Gy or sham irradiated 24 h after plating. The cells were given either vehicle (DMSO, 0.1% v/v) or 5 μM of DT3 or 5 μM of TRFRB 4 hours following radiation. Culture media were replaced again at 36 h following radiation. At the 72 h time point, a scratch was made using a sterile micropipette tip in each well. This created an open area into which the keratinocytes migrated. Two areas of the scratch margins were imaged daily until scratches were closed. The area of the scratch remaining was measured on the images at five points per field, with two fixed fields averaged using Cell Analyzer 1.0 (BWTech, Iowa City, Iowa). Measurements were stopped when cells no longer made positive progress towards the scratch origin. See Ross et al., Exp Dermatol 2011, 20, 58-63.
This protection in the increased survival fraction was not statistically significant compared to 8 Gy IR alone group (FIG. 7). An in vitro scratch assay was utilized to evaluate the protective efficacy of TRFRB for keratinocyte migration function when the cells were treated with TRFRB after IR exposure.

The conditions of assay [5]: single injection; cited from earlier work.
In assay [6] the test system is TBHP induced lipid peroxidation in Wistar rat liver microsomes. The experiment in a line: TBARS assay: inhibition of TBHP induced microsomal lipid peroxidation. Type of assay: biochemical. To be noted: microsomes pretreated 1 h, then TBHP 30 min; TRFRB expressed in μM of tocotrienols; read-out: IC50, concentration that reduced the amount of lipid peroxidation approximately 50%. The protocol: The antioxidant activity of TRFRB was assessed measuring the ability to prevent microsomal lipid peroxidation. For this a TBARS assay was performed using a modified version of the original method described by Buege and Aust, Microsomal lipid peroxidation. Methods Enzymol 1978, 52, 302-310. Briefly, rat liver microsomes (BD Bioscience) were suspended in PBS in glass tubes at final concentration of 1 mg/mL. To this, increasing concentrations of TRFRB dissolved in DMSO were added. DMSO alone was used as control. The final DMSO percentage was kept under 0.1%. Microsomes were subsequently incubated with the test compounds at 37° C. for one hour in a shaking water bath (100 rpm). After one hour, freshly made tert-Butyl hydroperoxide (TBHP) solution was added to microsomes at a final concentration of 200 μM and incubation was continued for another 30 mins. The reaction was terminated by addition of 20% trichloroacetic acid and tubes were placed on ice for 15 mins. Equal volume of 0.67% thiobarbituric acid in 0.05N NaOH was added and the final mixture was heated at 95° C. for 45 mins to allow the color to develop. Finally, the tubes were cooled on ice and centrifuged at 1000 rpm for 20 mins and the supernatant was read at 532 nm. The percent TBARS was calculated using a standard curve obtained using malondialdehyde (MDA). […]

In the case of `CC(C)=CCC/C(C)=C/CC/C(C)=C/CC[C@]1(C)CCc2cc(O)cc(C)c2O1` [DT3, δ-tocotrienol], in assay [1], the “protection of cell morphology against H2O2 treatment” value was “significantly protected the morphology”. For the same molecule, the “mitochondrial respiration following H2O2 injury” value in assay [2] (5 μM for 16 h prior to 50 or 100 μM H2O2 for 4 h) was “complete protection and restored the mitochondrial respiration”. For the same molecule, in assay [2] (5 μM overnight (16 h), no cellular stress), the “basal oxygen consumption rate (OCR)” value was “increased”. The “maximum OCR” value in assay [2] (5 μM overnight (16 h), no cellular stress, after FCCP) is listed as “increased”. Besides, the reserve respiratory capacity entry in assay [2] (calculated from maximum and basal OCR) is listed as “an increase in reserve respiratory capacity”. In assay [3], the “degree of mitochondrial uncoupling” value is reported as “this increase was reversed”. In addition, the migration rates result in assay [4] is recorded as “partially restored”. Also, in assay [5], the “dose reduction factor (DRF) as a radiomitigator” value is listed as 1.1 and the “dose reduction factor (DRF) as a radioprotectant” value was 1.27.
Take `CC(C)=CCC/C(C)=C/CC/C(C)=C/CC[C@]1(C)CCc2cc(O)c(C)c(C)c2O1` [GT3, γ-tocotrienol]: in assay [6], the IC50 stood at 7 µM. Further, in assay [5], the “dose reduction factor (DRF) as a radioprotectant” value is on record as 1.29.
